Data taken from patent US6677429B1, “Echinocandin derivatives, preparation method and application as anti-fungal agents” (Aventis Pharma S.A., priority 1997, dated 2004).

The compounds below were run against T1, Glucane Synthesis of Candida albicans (Candida albicans, UniProt O13428) (assay: Inhibition of the Glucane Synthesis of Candida albicans). Settings: purified Candida albicans membranes, 14C-UDP glucose, 25° C. for 1 hour, radioactivity on filter counted.
T1 construct: 22.5 µg of membrane proteins are incubated in a mixture of 2 Mm of 14C-UDP glucose; endogenous in cells
T1 sequence (O13428 1-1897): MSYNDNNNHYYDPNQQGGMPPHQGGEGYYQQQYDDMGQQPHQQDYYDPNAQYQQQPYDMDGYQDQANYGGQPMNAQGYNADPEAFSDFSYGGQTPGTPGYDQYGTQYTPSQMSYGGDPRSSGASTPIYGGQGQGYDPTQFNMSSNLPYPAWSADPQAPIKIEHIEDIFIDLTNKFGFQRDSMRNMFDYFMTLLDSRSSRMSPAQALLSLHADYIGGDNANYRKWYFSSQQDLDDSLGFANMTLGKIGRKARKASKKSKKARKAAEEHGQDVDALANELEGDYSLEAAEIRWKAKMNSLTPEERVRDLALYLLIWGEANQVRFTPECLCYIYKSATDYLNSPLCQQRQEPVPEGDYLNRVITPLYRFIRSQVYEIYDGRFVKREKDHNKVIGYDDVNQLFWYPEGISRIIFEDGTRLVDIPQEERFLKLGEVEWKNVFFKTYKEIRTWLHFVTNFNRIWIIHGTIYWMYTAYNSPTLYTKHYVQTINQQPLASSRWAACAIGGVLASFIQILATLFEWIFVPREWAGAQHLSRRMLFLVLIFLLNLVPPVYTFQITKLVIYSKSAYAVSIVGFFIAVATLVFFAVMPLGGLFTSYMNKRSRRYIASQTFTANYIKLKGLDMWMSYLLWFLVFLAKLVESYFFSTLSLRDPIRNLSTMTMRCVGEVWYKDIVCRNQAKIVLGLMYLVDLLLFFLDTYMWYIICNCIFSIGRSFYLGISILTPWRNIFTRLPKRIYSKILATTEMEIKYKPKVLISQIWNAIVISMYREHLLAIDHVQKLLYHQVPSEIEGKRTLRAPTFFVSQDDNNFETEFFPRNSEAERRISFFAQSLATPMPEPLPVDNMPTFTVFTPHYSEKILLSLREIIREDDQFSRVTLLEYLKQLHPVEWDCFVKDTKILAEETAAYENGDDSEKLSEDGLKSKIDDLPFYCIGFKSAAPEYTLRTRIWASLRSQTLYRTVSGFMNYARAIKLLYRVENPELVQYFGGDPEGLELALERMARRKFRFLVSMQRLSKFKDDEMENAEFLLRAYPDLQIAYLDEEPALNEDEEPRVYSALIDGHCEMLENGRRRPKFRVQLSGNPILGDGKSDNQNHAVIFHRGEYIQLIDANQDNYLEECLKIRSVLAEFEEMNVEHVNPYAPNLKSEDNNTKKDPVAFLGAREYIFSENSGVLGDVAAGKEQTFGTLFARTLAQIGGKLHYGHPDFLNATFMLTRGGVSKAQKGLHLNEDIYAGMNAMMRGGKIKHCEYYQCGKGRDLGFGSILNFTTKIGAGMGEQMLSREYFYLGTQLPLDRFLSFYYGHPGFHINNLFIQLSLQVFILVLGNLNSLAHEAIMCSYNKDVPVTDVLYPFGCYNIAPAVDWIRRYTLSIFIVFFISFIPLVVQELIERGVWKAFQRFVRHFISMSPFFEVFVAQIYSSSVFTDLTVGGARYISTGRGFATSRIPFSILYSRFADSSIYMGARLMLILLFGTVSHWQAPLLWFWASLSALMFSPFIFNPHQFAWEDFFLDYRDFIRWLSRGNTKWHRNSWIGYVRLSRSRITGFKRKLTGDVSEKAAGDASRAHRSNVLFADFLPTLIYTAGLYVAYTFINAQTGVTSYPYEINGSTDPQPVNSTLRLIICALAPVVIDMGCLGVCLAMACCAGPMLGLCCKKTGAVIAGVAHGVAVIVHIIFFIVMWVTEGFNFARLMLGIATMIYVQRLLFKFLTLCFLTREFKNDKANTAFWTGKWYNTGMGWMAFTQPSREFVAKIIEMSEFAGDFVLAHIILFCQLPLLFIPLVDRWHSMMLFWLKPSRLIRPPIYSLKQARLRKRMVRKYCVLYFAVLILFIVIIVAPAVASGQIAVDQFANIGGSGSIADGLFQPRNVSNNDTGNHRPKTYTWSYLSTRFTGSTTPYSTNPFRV
T1 sequence (O42825 whole entry partner): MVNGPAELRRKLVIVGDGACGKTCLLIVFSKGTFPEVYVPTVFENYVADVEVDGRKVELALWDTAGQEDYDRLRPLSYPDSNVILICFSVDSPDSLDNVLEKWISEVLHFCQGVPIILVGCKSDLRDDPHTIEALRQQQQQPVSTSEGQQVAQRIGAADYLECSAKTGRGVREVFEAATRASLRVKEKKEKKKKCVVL
Type: biochemical
Description: A—Inhibition of the Glucane Synthesis of Candida albicans.
The membranes of Candida albicans are purified according to the process described by Tang and al Antimicrob. Agents Chemother 35, 99-103, 1991. 22.5 µg of membrane proteins are incubated in a mixture of 2 Mm of 14C-UDP glucose (specific activity=0.34mCi./mmol, 50 μg of α-amylase, 1Mm of dithiotreitol (DTT), 1Mm EDTA, 100 Mm NaF, 7 μM of GTP-γ-S, 1M of sucrose and 5 oMm OF Ttris-HCL (pH 7.8) in a volume of 100 μl. The medium is incubated at 25° C. for 1 hour and the reaction terminated by addition of TCA to a final concentration of 5%. The reaction medium is transferred onto a pre-humidified glass fibre filter. The filter is washed, dried and its radioactivity is counted.
Mulundocandin is used as positive control.
The control of the medium is carried out with the same quantity of DMSO 1%.
In the case of `CCCCCCCCOc1ccc(-c2ccc(C(=O)NC3CC(NCCN)CNC(=O)C4C(O)C(C)CN4C(=O)C(CO)NC(=O)C(C(O)Cc4ccc(O)cc4)NC(=O)C4CC(O)CN4C(=O)C(C(C)O)NC3=O)cc2)cc1.O=C(O)C(F)(F)F` (single isomer, unassigned; isomer a) [Example 14, Trifluoroacetate of 1-[4-[(2-Aminoethyl)amino]N2-[[4′-(octyloxy)[1.1′-biphenyl]4-yl]carbonyl]-L-ornithine]4-[4-(4-hydroxyphenyl)-L-threonine]-5-L Serine Echinocandin B (Isomer A)], the “Inhibition of the Glucane Synthesis of Candida albicans (activity in this test)” value (“Inhibition” for short) is reported as “good activity”.
“(±) Trifluoroacetate of 1-[4-[(Aminoiminomethyl) hydrazono]-N2-(12-methyl-1-oxotetradecyl)-L-ornithine]4-[4-(4-hydroxyphenyl)-L-threonine]-5-L Serine Echinocandin B [Example 11]” was tested, and the “Inhibition” value was “good activity”.
With “Trifluoroacetate of 1-[4-[(2-Aminoethyl)amino]-N2-(12-methyl-1-oxotetradecyl)-L-ornithine]4-[4-(4-hydroxyphenyl)-L-threonine]-5-L Serine Echinocandin B (Isomer A and Isomer B) [Example 9]” the “Inhibition” value was “good activity”.
